Test results from patent publication US7585859B2, “PDE4B inhibitors and uses therefor” (Plexxikon, Inc., priority 2004, dated 2009).

Assays:
[1] = target: T1, PDE4B: The catalytic domain of human PDE4B from S152-S528 (Homo sapiens, UniProt Q07343); test: PDE4 IC50 determination by Scintillation Proximity Assay, PDE4B; type: biochemical; details: Table 1B, Formula I compounds; read-out: IC50 PDE4B
T1 construct: His6 (N); thrombin cleavage site (N); made in house; host or cells: E. coli
Procedure, shortened: (§1)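 Scintillation counts reflected [^3H]AMP captured on yttrium silicate SPA beads after enzyme hydrolysed [^3H]cAMP for 30 min at 30°. PDE4B was used at 80 ng/ml and PDE4D at 4 ng/ml. IC50 values came from non-linear regression.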

[2] = target: T2, full-length human PDE4D5 isozyme (Homo sapiens, UniProt Q08499); test: PDE4 IC50 determination by Scintillation Proximity Assay, PDE4D5; type: biochemical; details: Table 1B, Formula I compounds; read-out: IC50 PDE4D5
T2 construct: The full-length human PDE4D5 isozyme; His6 (N); TEV cleavage site (N); made in house; host or cells: baculovirus infected insect cells (unpurified lysate)
T2 sequence (Q08499 1-745 isoform Q08499-6): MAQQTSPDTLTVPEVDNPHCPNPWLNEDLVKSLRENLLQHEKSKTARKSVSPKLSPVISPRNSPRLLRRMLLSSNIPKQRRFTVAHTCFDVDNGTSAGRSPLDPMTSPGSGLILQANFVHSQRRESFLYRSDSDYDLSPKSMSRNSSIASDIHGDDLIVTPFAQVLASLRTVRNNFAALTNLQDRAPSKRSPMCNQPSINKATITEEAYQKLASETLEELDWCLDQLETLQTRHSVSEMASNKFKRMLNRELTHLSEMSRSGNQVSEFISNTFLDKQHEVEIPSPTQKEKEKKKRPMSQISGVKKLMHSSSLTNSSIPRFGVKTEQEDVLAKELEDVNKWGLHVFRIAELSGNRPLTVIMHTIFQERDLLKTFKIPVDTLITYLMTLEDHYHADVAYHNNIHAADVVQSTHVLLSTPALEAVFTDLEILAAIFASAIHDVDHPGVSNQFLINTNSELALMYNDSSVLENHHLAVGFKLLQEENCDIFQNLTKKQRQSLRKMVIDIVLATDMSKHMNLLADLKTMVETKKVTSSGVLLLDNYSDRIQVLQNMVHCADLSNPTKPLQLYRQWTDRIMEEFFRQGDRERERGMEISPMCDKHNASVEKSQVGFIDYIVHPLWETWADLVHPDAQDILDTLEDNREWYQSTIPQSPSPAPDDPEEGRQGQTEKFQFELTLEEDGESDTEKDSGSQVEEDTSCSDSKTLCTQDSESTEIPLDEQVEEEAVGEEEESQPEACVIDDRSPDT
Procedure, shortened: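 Unpurified His6-tagged full-length human PDE4D5 from baculovirus-infected insect cell lysate, 0.083 μl glycerol stock/ml, hydrolysed [3H]cAMP in Tris pH 7.5/MgCl/EGTA buffer, 30 min at 30°. ZnSO4/SPA beads stop; [3H]AMP counted. Controls: DMSO and roflumilast; 11-point duplicate curves, nonlinear-regression IC50.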

[3] = target: T3, full-length human PDE4B2 isozyme (Homo sapiens, UniProt Q07343); test: PDE4 IC50 determination by Scintillation Proximity Assay, PDE4B2; type: biochemical; details: Table 1B, Formula I compounds; read-out: IC50 PDE4B2
T3 construct: The full-length human PDE4B2 isozyme; His6 (N); TEV cleavage site (N); made in house; host or cells: baculovirus infected insect cells (unpurified lysate)
T3 sequence (Q07343 1-564 isoform Q07343-2): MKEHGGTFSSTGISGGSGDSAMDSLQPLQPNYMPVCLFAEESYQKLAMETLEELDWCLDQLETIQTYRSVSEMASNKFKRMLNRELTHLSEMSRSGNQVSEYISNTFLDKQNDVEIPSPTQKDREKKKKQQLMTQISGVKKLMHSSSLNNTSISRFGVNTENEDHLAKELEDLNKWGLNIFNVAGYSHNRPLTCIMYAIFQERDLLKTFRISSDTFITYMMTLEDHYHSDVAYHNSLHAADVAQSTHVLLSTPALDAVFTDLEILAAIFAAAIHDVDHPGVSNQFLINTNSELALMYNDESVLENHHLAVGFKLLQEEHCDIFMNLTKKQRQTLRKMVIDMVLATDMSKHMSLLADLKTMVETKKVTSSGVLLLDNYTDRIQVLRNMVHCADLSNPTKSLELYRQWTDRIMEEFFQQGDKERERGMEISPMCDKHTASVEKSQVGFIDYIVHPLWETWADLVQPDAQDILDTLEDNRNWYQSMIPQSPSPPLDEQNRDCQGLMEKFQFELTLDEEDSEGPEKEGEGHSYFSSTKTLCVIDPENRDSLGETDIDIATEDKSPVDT
Procedure, shortened: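 Unpurified His6-TEV-tagged full-length human PDE4B2 from baculovirus-infected insect cell lysate (2.5 μl of 50% glycerol stock/ml) hydrolysed [3H]cAMP in 50 mM Tris pH 7.5, 8.3 mM MgCl, 1.7 mM EGTA, 0.01% BSA for 30 min at 30°. Stopped with SPA beads in 18 mM ZnSO4; [3H]AMP scintillation counted, IC50 by non-linear regression.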

PDE4D = target: T4, PDE4D (Homo sapiens, UniProt Q08499); test: PDE4 IC50 determination by Scintillation Proximity Assay, PDE4D; type: biochemical; details: Table 1B, Formula I compounds; read-out: IC50 PDE4D
T4 construct: PDE4D: The catalytic domain of human PDE4B from S3 16-V692; His6 (N); thrombin cleavage site (N); made in house; host or cells: E. coli
T4 sequence (Q08499 380-756): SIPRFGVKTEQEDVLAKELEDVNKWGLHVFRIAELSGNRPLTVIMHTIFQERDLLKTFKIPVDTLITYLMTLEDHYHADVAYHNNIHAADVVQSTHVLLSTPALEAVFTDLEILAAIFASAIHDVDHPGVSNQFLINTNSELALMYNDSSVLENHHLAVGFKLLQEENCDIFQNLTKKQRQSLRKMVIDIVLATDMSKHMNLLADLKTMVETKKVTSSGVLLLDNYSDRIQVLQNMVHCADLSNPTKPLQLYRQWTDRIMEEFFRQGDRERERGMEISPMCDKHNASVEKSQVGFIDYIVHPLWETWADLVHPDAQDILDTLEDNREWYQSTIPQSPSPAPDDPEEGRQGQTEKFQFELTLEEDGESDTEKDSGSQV
Procedure, shortened: as §1

[4] = system: TNF alpha production in LPS-stimulated human blood (Buffy coat); test: TNF alpha production by stimulation with LPS in whole blood cultures; type: cell-based; details: Homo sapiens; Table 1B, Formula I compounds; read-out: IC50 h TNFα
Procedure: Compounds were assayed to generate IC50 numbers as described in Example 54, using the following assay protocol (see Tables 3B and 4B for compounds and results).
Protocol • 1) Obtained 20 mM DMSO aliquots of desired concentrations of compounds (see Tables 3B and 4B for compounds tested and results). Placed 2 μl/well compound in DMSO in the top row of the dilution plate. Added 98 μl of RPMI 1640 media w/2.5% heat inactivated FBS.
2) Made the same media with 2% DMSO in it. Added 60 μl/well to well to make compound titration. Took 30 μl of top row and did a 1:3 dilution down the plate. In column 11 added 4 wells of 50 μM roflumilast and piclamilast. In column 12 added 2% DMSO media.
3) Transfered 20 μl/well into assay plates in duplicate.
4) Obtained human Buffy coat.
5) Diluted blood with 7 volumes of RPMI 1640 media with 1% P/S and 2.5% heat inactivated FBS (a 1:8 dilution)
6) Added160 μl/well of diluted blood to the assay plates.
7) Incubated for 1 hour at 37 degrees 5% CO2
8) Diluted LPS (which was already diluted to 1 mg/ml in PBS, 20 μl aliquots frozen −20 C.) to 10× desired final concentration to make a […] dilution (final concentration should be 100 ng/ml).
9) After 1 hour incubation added 20 μl/well of LPS to plates. A non-LPS treated background was also prepared. Samples were put on the shaker for a one minute 900 rpm.
10) Incubated for 4 hours in incubator.
11) After incubation, put on the shaker for a one minute 900 rpm and spun plate at 100 g for 10 minutes, Decel 5.
12) Carefully pipetted the top 75 μl supernatant into a new plate. Samples were frozen as needed.
Biosource hu-TNF ALPHA ELISA
• REAGENTS USED • DPBS 10×: VWR45000-428 (dilute 1:10 with Millipore Water) • TWEEN 20: FISHER BP337-500 • CAPTURE AND DETECTION ANTIBODIES: R&D DY510E • STREP-HRP: Biosource part SNN4004X • COLOR REAGENTS: R&D DY994 • STOP SOLUTION: from chemistry, or R&D DY999 • 1) Thawed samples to RT as needed. • 2) Added 50 μl Incubation buffer/well. • 3) Added 50 μl blood samples +50 μl Diluent buffer • 4) Incubated 2 hours at room temp. • 5) Washed the plate 4× with 300 μl/well wash buffer with microfill. Wash buffer was DPBS with 0.05% Tween pH 7.2-7.4 • 6) Added 100 μl biotinylated anti-TNFalpha • 7) Incubateed 1 hours at room temp. • 8) Washed the plate 4× with 300 μl/well wash buffer with microfill. Wash buffer was DPBS with 0.05% Tween pH 7.2-7.4 • 9) Added^100 μl Streptavidin-HRP working solution • 10) Incubated for 30 minutes at room temp. • 11) Washed the plate 4× with 300 μl/well wash buffer with microfill. Wash buffer was DPBS with 0.05% Tween pH 7.2-7.4 • 12) Added 100 μl Chromagen • 13) Incubated in the dark for 30 minutes until the blue color developed satisfactorily. • 14) Added 100 μl/well stop solution (2 N H2SO4). • 15) Read plate on WallacVictor at 450 nm for 0.1 sec/well

T1 sequence (Q07343 with tags, fused parts or gaps): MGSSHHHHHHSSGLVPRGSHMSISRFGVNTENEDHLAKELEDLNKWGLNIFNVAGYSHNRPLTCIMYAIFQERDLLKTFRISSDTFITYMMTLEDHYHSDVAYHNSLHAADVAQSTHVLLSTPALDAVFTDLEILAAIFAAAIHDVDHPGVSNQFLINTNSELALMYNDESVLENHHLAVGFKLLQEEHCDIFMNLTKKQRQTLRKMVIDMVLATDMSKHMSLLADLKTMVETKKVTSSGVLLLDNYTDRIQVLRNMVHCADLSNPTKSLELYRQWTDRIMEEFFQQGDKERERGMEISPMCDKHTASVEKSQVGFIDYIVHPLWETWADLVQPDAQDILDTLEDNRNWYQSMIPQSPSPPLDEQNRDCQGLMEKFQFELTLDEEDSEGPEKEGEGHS

IC50 [1] | IC50 [2] | IC50 [3] | IC50 (PDE4D) | IC50 [4] | Compound
< 10 µM | > 10 µM | < 10 µM | > 10 µM | > 10 µM | CC(C)C(C)Nc1sc(C(=O)c2cc(-c3ccccc3)no2)c(N)c1C#N (stereo not drawn) [Compound 1-223, 4-Amino-2-(1,2-dimethyl-propylamino)-5-(3-phenyl-isoxazoie-5-carbonyl)-thiophene-3-carbonitrile]
< 10 µM | > 10 µM | < 10 µM | > 10 µM | > 10 µM | CC(C)Nc1sc(C(=O)c2cc(-c3ccc(Cl)c(Cl)c3)no2)c(N)c1C#N [Compound 1-225]
< 10 µM | < 10 µM | < 10 µM | < 10 µM | < 10 µM | CCC(C)Nc1sc(C(=O)c2cc(-c3ccccc3)no2)c(N)c1C(N)=O (stereo not drawn) [Compound 1-244, 4-Amino-2-sec-butylamino-5-(3-phenyl-isoxazole-5-carbonyl)-thiophene-3-carboxylic acid amide]
< 10 µM | < 10 µM | < 10 µM | < 10 µM | < 10 µM | CC(C)CNc1sc(C(=O)c2cc(-c3ccc(Cl)c(Cl)c3)no2)c(N)c1C(N)=O [Compound 1-245, 4-Amino-5-[3-(3,4-dichloro-phenyl)-isoxazole-5-carbonyl]-2-isobutylamino-thiophene-3-carboxylic acid amide]
< 10 µM | > 10 µM | < 10 µM | > 10 µM | > 10 µM | CCC(C)Nc1sc(C(=O)c2cc(-c3ccc(Cl)c(Cl)c3)no2)c(N)c1C#N (stereo not drawn) [Compound 1-247, 4-Amino-2-sec-butylamino-5-[3-(3,4-dichloro-phenyl)-isoxazole-5-carbonyl]-thiophene-3-carbonitrile]
< 10 µM | < 10 µM | < 10 µM | < 10 µM | > 10 µM | N#Cc1c(NC2CCCC2)sc(C(=O)c2cc(-c3ccc(N)cc3)no2)c1N [Compound 1-250, 4-Amino-5-[3-(4-amino-phenyl)-isoxazole-5-carbonyl]-2-cyclopentylamino-thiophene-3-carbonitrile]
< 10 µM | < 10 µM | < 10 µM | < 10 µM | > 10 µM | Cc1nc(-c2cnccn2)sc1C(=O)c1sc(NC2CCCC2)c(C(N)=O)c1N [Compound 1-252, 4-Amino-2-cyclopentylamino-5-(4-methyl-2-pyrazin-2-yl-thiazole-5-carbonyl)-thiophene-3-carboxylic acid amide]
< 10 µM | < 10 µM | < 10 µM | < 10 µM | > 10 µM | NC(=O)c1c(NC2CCCC2)sc(C(=O)c2cc(-c3ccc(N)cc3)no2)c1N [Compound 1-253, 4-Amino-5-[3-(4-amino-phenyl)-isoxazole-5-carbonyl]-2-cyclopentylamino-thiophene-3-carboxylic acid amide]
< 10 µM | < 10 µM | < 10 µM | < 10 µM | < 10 µM | CC(C)CNc1sc(C(=O)c2cc(-c3ccc(N)cc3)no2)c(N)c1C(N)=O [Compound 1-254, 4-Amino-5-[3-(4-amino-phenyl)-isoxazole-5-carbonyl]-2-isobutylamino-thiophene-3-carboxylic acid amide]
